Consider 16 compounds from PubChem BioAssay (NCI).

Test systems include 786-0 renal; ACHN renal; EKVX NSCLC; LOX IMVI melanoma; MOLT-4 leukemia; RPMI-8226 leukemia; RXF 393 renal; SK-OV-3 ovarian; SK-MEL-5 melanoma; PC-3 prostate.
Experiment in all cases: NCI tumour cell line growth inhibition, 48 h

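Briefly, cells in 96-well plates were exposed to five compound concentrations for 48 h, and endpoints were estimated by linear interpolation. Definition used: TGI = concentration required for complete inhibition of growth.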

As for `O=C(CC1(O)C(=O)Nc2ccc(Br)cc21)c1cccc([N+](=O)[O-])c1` (stereo not drawn), the TGI with 786-0 renal is over 100 µM; in the test with ACHN renal, over 100 µM; with EKVX NSCLC, over 100 µM; in the test on LOX IMVI melanoma, over 100 µM; in the test with MOLT-4 leukemia, 70.1 µM; in the test on RPMI-8226 leukemia, 57.9 µM. In addition, the TGI in the test with RXF 393 renal is 83.8 µM; in the test on SK-OV-3 ovarian it was over 100 µM.

As to `BrC(/C=N/Nc1nnc(-c2ccccc2)c(-c2ccccc2)n1)C(Br)c1ccccc1` (stereo not drawn), the TGI in the test with 786-0 renal is over 100 µM; with ACHN renal, over 100 µM; in the test on EKVX NSCLC it was over 100 µM; in the test with LOX IMVI melanoma, over 100 µM; in the test on MOLT-4 leukemia, over 100 µM; in the test on RPMI-8226 leukemia it was 70.7 µM. In addition, the figures for the TGI in the test with RXF 393 renal, in the test with SK-MEL-5 melanoma and in the test on SK-OV-3 ovarian were over 100 µM, 57.9 µM and over 100 µM, respectively.

With `CCCCP1(=O)C=CC(Cl)=C(C)C1` (stereo not drawn), the TGI with 786-0 renal, in the test with ACHN renal, in the test on EKVX NSCLC, in the test with MOLT-4 leukemia, with RXF 393 renal and in the test on SK-MEL-5 melanoma was over 100 µM throughout.

In the case of `Cc1nc2ccccc2c(=O)n1/N=C(\N=Nc1ccc(Cl)cc1)c1ccc(N(C)C)cc1`, the TGI with 786-0 renal, in the test on ACHN renal, with EKVX NSCLC, in the test with LOX IMVI melanoma, in the test with MOLT-4 leukemia and with RXF 393 renal was over 100 µM throughout. Moreover, the TGI in the test on SK-MEL-5 melanoma and with SK-OV-3 ovarian was over 100 µM in each case.

As to `O=C1C(=C2C(=O)c3ccccc3[N+]2=O)N([O-])c2ccccc21`, the TGI with 786-0 renal is 46.1 µM; in the test on ACHN renal, 91.4 µM; with EKVX NSCLC, 42.2 µM; in the test on LOX IMVI melanoma, 29.8 µM; in the test with MOLT-4 leukemia it was 48.7 µM; with RPMI-8226 leukemia, 57.7 µM. In addition, the TGI in the test with RXF 393 renal is 90.6 µM; in the test with SK-MEL-5 melanoma, 32.5 µM; in the test on SK-OV-3 ovarian it was over 100 µM.

Regarding `COc1ccc(Cc2c3cc(OC)c(OC)cc3cc[n+]2C)cc1`, the TGI with 786-0 renal is over 29.7 µM; with ACHN renal, over 49.9 µM; in the test on EKVX NSCLC it was over 59 µM; in the test on LOX IMVI melanoma, over 24.7 µM; in the test on MOLT-4 leukemia it was over 100 µM; with RPMI-8226 leukemia, over 100 µM. The TGI was over 42 µM in the test on RXF 393 renal, over 62.2 µM in the test on SK-MEL-5 melanoma and over 47.3 µM with SK-OV-3 ovarian.

On to `N#CC1(C2CC(=O)N(c3ccccc3)C2=O)CCCCC1=O` (stereo not drawn), for which the TGI in the test on 786-0 renal, in the test on ACHN renal, in the test on EKVX NSCLC, in the test on LOX IMVI melanoma, with MOLT-4 leukemia and with RPMI-8226 leukemia was over 100 µM each time. The TGI in the test on RXF 393 renal, in the test with SK-MEL-5 melanoma and with SK-OV-3 ovarian was over 100 µM in each case.

`CC[C@H]1CNC(=O)CC1CC(=O)OC` (stereo partly drawn): the TGI in the test on 786-0 renal, in the test on ACHN renal, in the test on EKVX NSCLC, in the test on LOX IMVI melanoma, in the test with MOLT-4 leukemia and with RXF 393 renal was over 100 µM each time. The TGI with SK-MEL-5 melanoma and with SK-OV-3 ovarian was over 100 µM each time.

Consider `C#CC[C@]12CC(=O)CC[C@H]1CC1(C2)OCCO1`, for which the TGI with 786-0 renal, in the test with ACHN renal, in the test with MOLT-4 leukemia, in the test on RPMI-8226 leukemia, in the test on RXF 393 renal and in the test with SK-MEL-5 melanoma was over 100 µM in each case. In addition, the TGI in the test on SK-OV-3 ovarian is over 100 µM.

`CC(=O)NNc1nc(C)c(C(=O)NNC(=O)C(=O)Nc2ccc(C)cc2[N+](=O)[O-])s1`: the TGI in the test on 786-0 renal, in the test on ACHN renal, in the test on EKVX NSCLC, in the test on LOX IMVI melanoma, in the test on MOLT-4 leukemia and with RPMI-8226 leukemia was over 100 µM each time. Also, the TGI in the test on RXF 393 renal, with SK-MEL-5 melanoma and in the test with SK-OV-3 ovarian was over 100 µM throughout.

As for `Cc1cc(Br)ccc1N=NC1C(=O)ON=C1c1ccccc1` (stereo not drawn), the TGI in the test with 786-0 renal, in the test on ACHN renal, in the test on EKVX NSCLC, with LOX IMVI melanoma, in the test with MOLT-4 leukemia and in the test with RPMI-8226 leukemia was over 100 µM in each case. The TGI with RXF 393 renal, with SK-MEL-5 melanoma and in the test with SK-OV-3 ovarian was over 100 µM throughout.

Consider `CC1(C)OC2OC(/C=C/[N+](=O)[O-])C3OC(C)(C)OC3C2O1` (stereo not drawn), for which the TGI is 27.7 µM in the test with 786-0 renal; 28.8 µM in the test on ACHN renal; 41.9 µM in the test with EKVX NSCLC; 22.1 µM with LOX IMVI melanoma; 13.2 µM in the test with MOLT-4 leukemia; 5.99 µM in the test with RXF 393 renal. Further, the TGI in the test on SK-MEL-5 melanoma was 31.7 µM; in the test with SK-OV-3 ovarian it was 34.8 µM.

With `CC1CC(=O)C(CC(=O)O)[C@H]1C(C(=O)C(=O)Nc1cc(Cl)ccc1Cl)[N+](=O)[O-]` (stereo partly drawn), the TGI in the test on 786-0 renal, in the test on ACHN renal, with EKVX NSCLC, with LOX IMVI melanoma, in the test with RPMI-8226 leukemia and in the test on RXF 393 renal was over 100 µM in each case. For the same compound, the TGI in the test with SK-MEL-5 melanoma and with SK-OV-3 ovarian was over 100 µM throughout.

For the compound `C[C@H](O)CCC(=O)c1ccoc1`, the TGI with 786-0 renal, in the test with ACHN renal, with EKVX NSCLC, in the test with LOX IMVI melanoma, in the test with MOLT-4 leukemia and in the test on RPMI-8226 leukemia was over 100 µM each time. For the same compound, the TGI in the test with RXF 393 renal, with SK-MEL-5 melanoma and in the test with SK-OV-3 ovarian was over 100 µM each time.

`O=C(/C=C/c1c[nH]c2ccccc12)c1ccccc1O`: the TGI turned out to be 25.5 µM in the test with 786-0 renal; 25.2 µM in the test on ACHN renal; 33 µM in the test with EKVX NSCLC; 21.7 µM in the test with LOX IMVI melanoma; 37 µM in the test with MOLT-4 leukemia; 18.7 µM with PC-3 prostate. The values for the TGI in the test with RPMI-8226 leukemia and in the test with SK-OV-3 ovarian were 62.1 µM and 33 µM, respectively.

Consider `CCc1cccc(CC)c1NC1=CC(=O)C(=O)c2ccccc21`, for which the TGI is 44.9 µM in the test on 786-0 renal; 26 µM in the test on ACHN renal; 27.9 µM in the test on EKVX NSCLC; 29.3 µM in the test with LOX IMVI melanoma; over 100 µM with MOLT-4 leukemia; over 100 µM in the test on RPMI-8226 leukemia. For the same compound, the TGI came to 45.2 µM in the test with RXF 393 renal, 21.6 µM in the test on SK-MEL-5 melanoma and 89.5 µM in the test with SK-OV-3 ovarian.
